DBAASP
Converted amounts (≈) assume the structure as drawn. “And” between values parts separate entries of the source, which are not always exact repeats. Equal values may be shown once. Each block holds one compound with its values, some of them ahead of it.

What was measured:
Test in all cases: ≥ marks a high value that may be exact or a test limit, other limits are often not marked, values filed in µg/mL are converted to µM
[1] = test system: Pseudomonas aeruginosa MR3007
[2] = test system: Staphylococcus aureus 930918-3
Enterococcus faecalis = test system: Enterococcus faecalis
Escherichia coli W3110 = test system: Escherichia coli W3110
[3] = test system: Pseudomonas aeruginosa PAK
Staphylococcus aureus = test system: Staphylococcus aureus
[4] = test system: Streptococcus mutans UA159
[5] = test system: Streptococcus sanguinis NY101
[6] = test system: Streptococcus sobrinus ATCC 33478
[7] = test system: Bacillus licheniformis X39
[8] = test system: Enterococcus faecalis 981
[9] = test system: Escherichia coli ATCC 25922
[10] = test system: Klebsiella pneumoniae 08040724
[11] = test system: Psychrobacter faecalis X29
[12] = test system: Rhodococcus rhodochrous X15
Serratia rubidaea X01 = test system: Serratia rubidaea X01
[13] = test system: Staphylococcus aureus ATCC 25923
[14] = test system: Staphylococcus carnosus KHS
Escherichia coli D31 = test system: Escherichia coli D31
[15] = test system: Klebsiella pneumoniae K6 ATCC 700603
[16] = test system: Salmonella enterica subsp. enterica serovar Typhimurium ATCC 700408
Bacillus megaterium Bm11 = test system: Bacillus megaterium Bm11
Candida tropicalis = test system: Candida tropicalis
Mammaliicoccus lentus = test system: Mammaliicoccus lentus
Micrococcus luteus = test system: Micrococcus luteus
[17] = test system: Phytophthora nicotianae PG344
[18] = test system: Pseudomonas syringae pv. tabaci
[19] = test system: Yersinia pseudotuberculosis YPIII
Escherichia coli O157:H7 = test system: Escherichia coli O157:H7
[20] = test system: Staphylococcus aureus 1056

Compound: CC[C@H](C)[C@H](NC(=O)[C@H](CCCCN)NC(=O)[C@H](CCCCN)NC(=O)[C@H](CC(C)C)NC(=O)[C@H](CCCCN)NC(=O)[C@H](CCC(=O)O)NC(=O)[C@H](CCCCN)NC(=O)[C@@H](NC(=O)[C@H](CCCCN)NC(=O)[C@H](CC(N)=O)NC(=O)[C@H](CCCN=C(N)N)NC(=O)[C@H](Cc1ccccc1)NC(=O)[C@H](CCCCN)NC(=O)[C@H](CCCN=C(N)N)NC(=O)[C@H](CC(C)C)NC(=O)[C@H](CCCN=C(N)N)NC(=O)[C@H](CCCCN)NC(=O)[C@H](CCCN=C(N)N)NC(=O)[C@H](CC(C)C)NC(=O)CN)[C@@H](C)CC)C(=O)NCC(=O)O [GLRKRLRKFRNKIKEKLKKIG]
MIC [1]: 0.27 µM and 0.34 µM
MIC [2]: 0.69 µM and 0.84 µM

Compound: CC[C@H](C)[C@H](NC(=O)[C@H](Cc1ccccc1)NC(=O)CNC(=O)CNC(=O)CNC(=O)[C@H](Cc1ccccc1)NC(=O)[C@H](Cc1cnc[nH]1)NC(=O)[C@H](CC(C)C)NC(=O)[C@H](Cc1cnc[nH]1)NC(=O)[C@H](Cc1ccccc1)NC(=O)[C@H](Cc1cnc[nH]1)NC(=O)[C@@H](N)Cc1ccccc1)C(=O)N[C@@H](CCCCN)C(=O)N[C@@H](Cc1cnc[nH]1)C(=O)N[C@@H](Cc1ccccc1)C(=O)N[C@H](C(=O)N[C@@H](Cc1cnc[nH]1)C(=O)N[C@@H](CCCN=C(N)N)C(=O)N[C@@H](Cc1ccccc1)C(N)=O)[C@@H](C)CC [FHFHLHFGGGFIKHFIHRF]
MIC (Enterococcus faecalis): 26.2 µM (≈ 62.5 µg/mL)
MIC (Escherichia coli W3110): 26.2 µM (≈ 62.5 µg/mL)
MIC [3]: 26.2 µM (≈ 62.5 µg/mL)
MIC (Staphylococcus aureus): 52.5 µM (≈ 125 µg/mL)
MIC [4]: 13.4 µM (≈ 32 µg/mL)
MIC [5]: 26.2 µM (≈ 62.5 µg/mL)
MIC [6]: 26.2 µM (≈ 62.5 µg/mL)

Compound: CC[C@H](C)[C@H](NC(=O)[C@H](Cc1ccc(O)cc1)NC(=O)[C@@H](NC(=O)[C@@H]1CCCN1C(=O)[C@H](CCCN=C(N)N)NC(=O)[C@H](CC(N)=O)NC(=O)[C@H](CC(N)=O)NC(=O)CN)C(C)C)C(=O)N1CCC[C@H]1C(=O)N[C@@H](CCC(N)=O)C(=O)N1CCC[C@H]1C(=O)N[C@@H](CCCN=C(N)N)C(=O)N1CCC[C@H]1C(=O)N1CCC[C@H]1C(=O)N[C@@H](Cc1cnc[nH]1)C(=O)N1CCC[C@H]1C(=O)N[C@@H](CC(C)C)C(N)=O [GNNRPVYIPQPRPPHPL]
MIC (Escherichia coli D31): ≥ 65.6 µM
MIC [15]: ≥ 32.8 µM
MIC [16]: ≥ 32.8 µM

Now from value to compound:

MIC [7]: 9 µM (≈ 35.3 µg/mL)
MIC [8]: 19 µM (≈ 74.6 µg/mL)
MIC [9]: 75 µM (≈ 295 µg/mL)
MIC [10]: ≥ 150 µM
MIC [11]: 4.5 µM (≈ 17.7 µg/mL)
MIC [12]: 1.2 µM (≈ 4.71 µg/mL)
MIC (Serratia rubidaea X01): 1.2 µM (≈ 4.71 µg/mL)
MIC [13]: 9 µM (≈ 35.3 µg/mL)
MIC [14]: 1.2 µM (≈ 4.71 µg/mL)
Compound: CC[C@H](C)[C@H](NC(=O)[C@H](CO)NC(=O)[C@H](Cc1ccccc1)NC(=O)[C@H](CC(C)C)NC(=O)[C@@H](N)CO)C(=O)N[C@@H](Cc1ccccc1)C(=O)N[C@@H](CCCCN)C(=O)N[C@H](C(=O)N[C@@H](C)C(=O)N[C@@H](C)C(=O)N[C@@H](CCCCN)C(=O)N[C@@H](Cc1ccccc1)C(=O)N[C@H](C(=O)NCC(=O)N[C@@H](CCCCN)C(=O)N[C@@H](CC(N)=O)C(=O)N[C@@H](CC(C)C)C(=O)N[C@@H](CC(C)C)C(=O)N[C@@H](CCCCN)C(=O)N[C@@H](CCC(N)=O)C(=O)N[C@@H](C)C(=O)NCC(=O)N[C@@H](CCCCN)C(=O)N[C@@H](C)C(=O)NCC(=O)N[C@@H](CC(C)C)C(=O)N[C@@H](CCC(=O)O)C(=O)N[C@H](C(=O)N[C@@H](CC(C)C)C(=O)N[C@@H](C)C(=O)N[C@H]1CSSC[C@@H](C(=O)O)NC(=O)[C@H](CCC(=O)O)NC(=O)[C@H](CC(N)=O)NC(=O)[C@H](CCCCN)NC(=O)[C@H](C)NC(=O)[C@H](CCCCN)NC1=O)[C@@H](C)O)C(C)C)[C@@H](C)O [SLFSIFKTAAKFVGKNLLKQAGKAGLETLACKAKNEC]

MIC (Bacillus megaterium Bm11): 3 µM (≈ 5.71 µg/mL)
MIC (Candida tropicalis): 7.4 µM (≈ 14.1 µg/mL)
MIC (Mammaliicoccus lentus): 7 µM (≈ 13.3 µg/mL)
MIC (Micrococcus luteus): 5 µM (≈ 9.52 µg/mL)
MIC [17]: ≥ 32 µM
MIC [18]: ≥ 80 µM
MIC [19]: 9 µM (≈ 17.1 µg/mL)
Compound: C[C@H](NC(=O)[C@@H](N)CO)C(=O)N1CCC[C@H]1C(=O)N[C@@H](CCCN=C(N)N)C(=O)NCC(=O)N[C@H]1CSSC[C@@H](C(=O)N[C@@H](CCCCN)C(N)=O)NC(=O)[C@@H]2CCCN2C(=O)[C@H](CCCCN)NC(=O)[C@@H]2CCCN2C(=O)[C@@H]2CCCN2C(=O)[C@H](Cc2ccc(O)cc2)NC(=O)[C@H](CO)NC(=O)[C@H](CCCCN)NC(=O)[C@H]([C@@H](C)O)NC(=O)[C@H](Cc2c[nH]c3ccccc23)NC1=O [SAPRGCWTKSYPPKPCK]

MIC (Escherichia coli O157:H7): 2.53 µM (≈ 12 µg/mL)
MIC [20]: 2.41 µM (≈ 11.5 µg/mL)
Compound: CC[C@H](C)[C@@H]1NC(=O)[C@H](CCCN=C(N)N)NC(=O)[C@H](CC(C)C)NC(=O)CNC(=O)[C@@H]2CSSC[C@@H]3NC(=O)[C@H](CC(C)C)NC(=O)CNC(=O)[C@H](CC(C)C)NC(=O)[C@H](Cc4ccccc4)NC(=O)[C@H](CCCN=C(N)N)NC(=O)[C@H](CO)NC(=O)[C@@H]4CCCN4C(=O)[C@H](Cc4ccccc4)NC(=O)[C@H](CC(N)=O)NC(=O)[C@H](CSSC[C@@H](C(=O)N[C@@H](CO)C(=O)N[C@@H](CCCN=C(N)N)C(=O)N[C@H](C(=O)N[C@@H](Cc4c[nH]c5ccccc45)C(=O)N[C@H](C(=O)O)C(C)C)C(C)C)NC(=O)[C@H](CSSC[C@H](NC(=O)[C@H](CCC(N)=O)NC(=O)[C@H](C)NC(=O)[C@H](CCC(=O)O)NC(=O)[C@H](CC(N)=O)NC(=O)[C@@H](NC(=O)[C@@H]4CCCN4C(=O)[C@@H](N)CC(C)C)C(C)C)C(=O)N[C@@H](CCCN=C(N)N)C(=O)N[C@@H](CCC(N)=O)C(=O)N[C@@H](C(C)C)C(=O)NCC(=O)NCC(=O)N[C@@H](Cc4ccc(O)cc4)C(=O)N2)NC(=O)[C@@H]2CCCN2C(=O)[C@H](Cc2cnc[nH]2)NC(=O)[C@H](CC(N)=O)NC(=O)[C@H](CCCN=C(N)N)NC(=O)[C@H]([C@@H](C)O)NC3=O)NC1=O [LPVNEAQCRQVGGYCGLRICNFPSRFLGLCTRNHPCCSRVWV]
